# Several values for one entry are separate records, joined by “and”; a condition that tells them apart may be missing. Equal entries are not always repeated. Where a SMILES comes first, the peptide text is derived from it.
# Tests used:
# [1] = target: T1, talin R3 domain (residues 787–911) (Mus musculus, UniProt P26039); test: ITC, tensin3 TBS peptide binding to talin R3; details: ITC 25°C, pH 6.5; mean ± SD from triplicate measurements
# T1 construct: recombinant talin R3 domain (residues 787–911); hexahistidine-tag followed by TEV protease cleavage site (N); made in house; host or cells: E. coli BL21
# Source text: (§1) Figure 3. Structural characterization of the multidomain talin–tensin3 interaction. (A) Representative images of NIH3T3 cells co-expressing GFP-R11DD-cBAK WT or carrying K2024E, K2031E, or both (K2024E+K2031E) with mCh-IDR. (B) Mitochondrial pulldown experiment using the same constructs as in A. (C) AlphaFold3 model of the talin R8–tensin3 TBS complex. TBS (orange) was predicted to engage the α2-α3 face of the R8 bundle (cyan). K1500 and R1510 (brown) are highlighted on the […]. (D) NIH3T3 cells co-expressing GFP-R7R8-cBAK WT or carrying K1500E or R1510E with mCh-IDR. (E) Mitochondrial pulldown experiment using constructs as in D. (F) Cells co-expressing mCh-TNS3-WT-cBAK and GFP-TLN1 constructs (R8m, K1500E; R11m, K2024E+K2031E). mCh-TNS3-L702E-cBAK was used as a negative control. (G and H) Overlay ^1H-^15N HSQC spectra of ^15N-labeled talin R3 (G) and talin R4 (H), at a concentration of 200 µM, in the absence (blue) and presence (red) of tensin3 TBS peptide at a molar ratio of 1:2. Magnified views in the right panels show the cross-peaks corresponding to the residues K869 and V871 of talin R3 (G) and the residues S927 and G969 of talin R4 (H), illustrating the progressive chemical shift changes at peptide molar ratios of 0 (blue), 0.25 (orange), 0.5 (green), 1.0 (coral), and 2.0 (red). The HSQC spectra of R3 and R4 were recorded at 700 and 800 MHz, respectively. (I and J) Mapping of the residue-specific CSD (related to Fig. S2, H and I) on the AlphaFold3 models of talin R3 (I) and R4 (J) colored in cyan, respectively, in complex with tensin3 TBS (orange). […]
# (§2) Recombinant mouse talin1 R3 and R7R8 domains were expressed using the pET-151/D-TOPO vector. […] Final protein concentrations were determined by measuring absorbance at 280 nm using a NanoDrop spectrophotometer (Thermo Fisher Scientific), based on calculated extinction coefficients.
# (§3) ITC experiments were performed using a MicroCal PEAQ-ITC automated instrument (Malvern Panalytical) at 25°C. […] Data were analyzed using the one-site binding model implemented in MicroCal PEAQ-ITC analysis software (Malvern Panalytical).
# [2] = target: T2, talin R4 domain (residues 913–1,044) (Mus musculus, UniProt P26039); test: ITC, tensin3 TBS peptide binding to talin R4; details: ITC 25°C, pH 6.5; mean ± SD from triplicate measurements
# T2 construct: R4 domain (residues 913–1,044); hexahistidine-tag followed by TEV protease cleavage site (N); made in house; host or cells: E. coli BL21
# Source text: as §1, §2, §3
# [3] = target: T3, talin R7R8 region (residues 1,359–1,659) (Mus musculus, UniProt P26039); test: ITC, tensin3 TBS peptide binding to talin R7R8; details: ITC 25°C, pH 6.5; mean ± SD from triplicate measurements
# T3 construct: R7R8 region (residues 1,359–1,659); hexahistidine-tag followed by TEV protease cleavage site (N); made in house; host or cells: E. coli BL21
# Source text: as §1, §2, §3
# [4] = target: T1, talin R3 domain (residues 787–911); test: 1H-15N HSQC NMR titration of talin R3; type: binding
# Experimental: (§4) Recombinant mouse talin1 R3 and R7R8 domains were expressed using the pET-151/D-TOPO vector. The recombinant mouse talin R4 domain was expressed using the pET-28a(+)vectors. Both vectors include an N-terminal hexahistidine-tag followed by a tobacco etch virus protease cleavage site. Proteins were overexpressed in BL21 cells and purified via nickel-affinity chromatography with a single-step elution at 250 mM imidazole concentration. For NMR studies, uniformly ^15N-labeled proteins were produced by growing cells in 2xM9 minimal medium supplemented with 1 g/Liter ^15N-ammonium chloride (^15NH4Cl) as the sole nitrogen source. Following purification, proteins were concentrated and buffer-exchanged using PD-10 desalting columns (Cytiva). Final protein concentrations were determined by measuring absorbance at 280 nm using a NanoDrop spectrophotometer (Thermo Fisher Scientific), based on calculated extinction coefficients.
# (§5) NMR spectra were acquired on Bruker Neo 700 MHz (for talin R3) or 800 MHz (for talin R4 and R7R8) spectrometers equipped with TCI cryoprobes. All experiments were performed at 298 K using 200 µM of uniformly ^15N-labeled talin R3, R4, or R7R8 in 20 mM sodium phosphate buffer (pH 6.4) containing 50 mM NaCl, 0.1 mM tris(2-carboxyethyl)phosphine (TCEP), and 5% (vol/vol) D2O. For titration experiments, synthetic tensin3 TBS peptide (aa 692–718) was added at final concentrations of 50, 100, 200, 400, and 800 µM. NMR data were processed using TopSpin (Bruker) and analyzed with Collaborative Computational Project for NMR software AnalysisAssign (version 3.2). HSQC spectra were measured using a standard Bruker pulse sequence. HSQC signals of the free proteins were assigned using the available backbone chemical shift data from the Biological Magnetic Resonance Data Bank (BMRB entries; R3: 17332; R4: 18313). The signals of the bound state were assigned by following the chemical shift changes with the increased concentrations of the peptide. Residue-specific chemical shift differences were calculated using HSQC spectra in the presence of 400 µM tensin3 TBS peptide.
# [5] = target: T2, talin R4 domain (residues 913–1,044); test: 1H-15N HSQC NMR titration of talin R4; type: binding
# Experimental: as §4, §5
# [6] = target: T3, talin R7R8 region (residues 1,359–1,659); test: 1H-15N HSQC NMR titration of talin R7R8; type: binding; details: intermediate exchange
# Experimental: as §4, with “Following purification, proteins were concentrated and buffer-exchanged using PD-10 desalting columns (Cytiva).” left out
# NMR spectra were acquired on Bruker Neo 700 MHz (for talin R3) or 800 MHz (for talin R4 and R7R8) spectrometers equipped with TCI cryoprobes. […] NMR data were processed using TopSpin (Bruker) and analyzed with Collaborative Computational Project for NMR software AnalysisAssign (version 3.2). HSQC spectra were measured using a standard Bruker pulse sequence. […] Residue-specific chemical shift differences were calculated using HSQC spectra in the presence of 400 µM tensin3 TBS peptide.
# talin R11 = details: previous observation; ref Atherton et al., 2022; read-out: Kd, talin R11 with tensin3 TBS; cited from earlier work
# [7] = 1:2 molar ratio (400 µM TBS peptide), threshold 5× SD
# T3 sequence (P26039 1359-1659 limits assumed): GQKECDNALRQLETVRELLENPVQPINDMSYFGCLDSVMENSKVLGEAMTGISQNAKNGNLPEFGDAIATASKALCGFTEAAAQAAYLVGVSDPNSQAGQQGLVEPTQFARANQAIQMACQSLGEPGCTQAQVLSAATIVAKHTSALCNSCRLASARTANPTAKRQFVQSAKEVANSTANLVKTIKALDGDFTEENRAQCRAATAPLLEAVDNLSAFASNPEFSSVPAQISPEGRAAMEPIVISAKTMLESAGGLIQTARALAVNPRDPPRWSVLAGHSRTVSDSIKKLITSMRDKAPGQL
# T2 sequence (P26039 913-1044 limits assumed): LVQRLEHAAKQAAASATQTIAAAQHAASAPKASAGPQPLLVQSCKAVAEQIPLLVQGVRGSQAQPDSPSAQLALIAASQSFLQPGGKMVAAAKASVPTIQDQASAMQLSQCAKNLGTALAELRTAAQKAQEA
# T1 sequence (P26039 787-911): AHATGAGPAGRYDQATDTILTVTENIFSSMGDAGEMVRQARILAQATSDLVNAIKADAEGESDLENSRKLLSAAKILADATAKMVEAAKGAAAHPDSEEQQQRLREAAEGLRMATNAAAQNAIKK
smiles,measurement,setting,value
CC[C@H](C)[C@H](NC(=O)[C@H](CO)NC(=O)[C@H](CCC(N)=O)NC(=O)[C@H](CC(=O)O)NC(=O)[C@@H](NC(=O)[C@H](CC(=O)O)NC(=O)[C@H](CC(C)C)NC(=O)[C@@H](N)[C@@H](C)O)[C@@H](C)CC)C(=O)N[C@@H](CCC(=O)O)C(=O)N[C@@H](CCC(N)=O)C(=O)N[C@@H](CC(C)C)C(=O)N[C@@H](CC(N)=O)C(=O)N[C@@H](CCCNC(=N)N)C(=O)N[C@@H](CC(C)C)C(=O)N[C@H](C(=O)N[C@@H](CC(C)C)C(=O)N[C@@H](CCC(=O)O)C(=O)N[C@@H](CC(C)C)C(=O)N[C@@H](CC(=O)O)C(=O)N1CCC[C@H]1C(=O)N[C@H](C(=O)N[C@@H](Cc1ccccc1)C(=O)N[C@@H](CCC(=O)O)C(=O)N1CCC[C@H]1C(=O)N[C@H](C(=O)N1CCC[C@H]1C(=O)N[C@H](C(=O)O)[C@@H](C)O)[C@@H](C)CC)[C@@H](C)O)[C@@H](C)CC [tensin3 TBS] (H-TLDIDQSIEQLNRLILELDPTFEPIPT-OH; N-terminus and C-terminus assumed),"Gibbs free energy (ΔG), R3-TBS",[1],-6.41 ± 0.0478 kcal/mol
same,"enthalpy change (ΔH), R3-TBS",[1],1.68 ± 0.148 kcal/mol and 1.68 ± 0.14 kcal/mol
same,"entropy contribution (−TΔS), R3-TBS",[1],-8.08 ± 0.0956 kcal/mol
same,"Gibbs free energy (ΔG), R4-TBS",[2],-6.29 ± 0.086 kcal/mol
same,"enthalpy change (ΔH), R4-TBS",[2],2.94 ± 0.586 kcal/mol and 2.94 ± 0.574 kcal/mol
same,"entropy contribution (−TΔS), R4-TBS",[2],-9.32 ± 0.626 kcal/mol
same,"Gibbs free energy (ΔG), R7R8-TBS",[3],-6.549 ± 0.0406 kcal/mol
same,"enthalpy change (ΔH), R7R8-TBS",[3],10.21 ± 0.492 kcal/mol
same,"entropy contribution (−TΔS), R7R8-TBS",[3],-16.75 ± 0.464 kcal/mol
same,"HSQC spectral changes on addition of TBS, R3","[4]; 200 µM 15N-talin R3, 298 K, 20 mM sodium phosphate pH 6.4, 50 mM NaCl, 0.1 mM TCEP, 5% D2O, 700 MHz, molar ratio up to 1:2",substantial changes
same,"location of significant chemical shift perturbations, R3",[4]; [7],α2 and α3 helices of R3
same,"Kd range suggested by exchange rate in NMR, R3",[4]; intermediate exchange,micromolar (µM) range
same,"HSQC spectral changes on addition of TBS, R4","[5]; 200 µM 15N-talin R4, 298 K, 20 mM sodium phosphate pH 6.4, 50 mM NaCl, 0.1 mM TCEP, 5% D2O, 800 MHz, molar ratio up to 1:2",substantial changes
same,"location of significant chemical shift perturbations, R4",[5]; [7],α1 and α2 helices of R4
same,"Kd range suggested by exchange rate in NMR, R4",[5]; intermediate exchange,micromolar (µM) range
same,"Kd range suggested by exchange rate in NMR, R7R8",[6],micromolar (µM) range
same,Kd,talin R11,17 µM
